Laboratory results taken from patent publication US12310971B2, “Coffee bean compositions comprising paraxanthine and methods for their production” (RAREBIRD, INC., priority 2021, dated 2025).

Key:
[1] = Solubility of paraxanthine in infusion solvents as a function of pH; format: physicochemical; conditions: dependence on pH
From the text: Thus, performing the infusing step at a pH of 7 or higher can be useful to increase the paraxanthine content of the finished paraxanthine coffee. In various embodiments, the pH of the infusion mixture is greater than pH 7. In some embodiments, the pH of the infusion mixture is greater than pH 8. In some embodiments, the pH of the infusion mixture is greater than 8.5. In some embodiments, the pH of the infusion mixture is greater than 9.0. In some embodiments, the pH of the infusion mixture is greater than 9.5.

[2] = Paraxanthine concentration in filtered aqueous stock infusion solution; format: physicochemical; conditions: 18 grams of paraxanthine mixed in 1 liter of water at 85° C., filtered to remove undissolved paraxanthine
Method: In the first, infusing, step, the three batches of green coffee beans were individually infused with paraxanthine dissolved in water, the infusion solvent, to produce green solvated paraxanthine coffee beans. A stock solution of infusion solvent comprising paraxanthine was generated by mixing 18 grams of paraxanthine in 1 liter of water at 85° C.; the solution was then filtered to remove any residual, undissolved paraxanthine. The paraxanthine concentration in the stock solution was approximately 74 mM. Infusions were performed in 250-mL glass jars using 60 grams of green coffee beans and 120 grams of the stock infusion solution. The mixtures were incubated at 85° C. for 1 hour with periodic mixing. Subsequently, the green solvated paraxanthine coffee beans were separated using a colander, rinsed, and residual solvent removed from the surface of the beans. The mass of the infused beans was measured and compared to the mass of the original green coffee beans to determine the infusion solvent content. The moisture contents for batches 1, 2, and 3 were 45.1%, 46.9%, and 44.8%, respectively.

[3] = in humans; cited from earlier work

Row | solubility of paraxanthine in the infusion solvents [1] | paraxanthine concentration in the stock solution [2] | Structure (SMILES) | half-life [3] [h]
1 | increases with increasing pH | approximately 74 mM | Cn1c(=O)[nH]c2ncn(C)c2c1=O [paraxanthine] | 
2 |  |  | Cn1c(=O)c2c(ncn2C)n(C)c1=O [caffeine] | 4.1 ± 0.8
